Values quoted from earlier work in US20010006673A1, “LUTEIN- CONTAINING SUPPLEMENT AND PROCESS FOR ENHANCING IMMUNE RESPONSE IN ANIMALS” (priority 1998, published 2001).

Experiments:
mouse splenocytes = conditions: cited from earlier work
Splenocytes = conditions: splenocytes from mice injected peritoneally; cited from earlier work
[1] = tested on: chemical-induced carcinogenesis; conditions: mice; cited from earlier work
lymphocyte = conditions: rats; cited from earlier work
[2] = tested on: tumor necrosis factor (TNF); conditions: hamsters; cited from earlier work
human neuroblastoma cell = conditions: cited from earlier work

SMILES	Ex vivo antibody response to T-dependent antigens (mouse splenocytes)	Antibody response to T-dependent antigens (Splenocytes)	also measured
CC1=C(/C=C/C(C)=C/C=C/C(C)=C/C=C/C=C(C)/C=C/C=C(C)/C=C/C2=C(C)C(=O)[C@@H](O)CC2(C)C)C(C)(C)C[C@H](O)C1=O [astaxanthin]	increase	enhanced	
CC1=C(/C=C/C(C)=C/C=C/C(C)=C/C=C/C=C(C)/C=C/C=C(C)/C=C/C2=C(C)C(=O)CCC2(C)C)C(C)(C)CCC1=O [canthaxanthin]			Chemical-induced carcinogenesis [1]: prevent; Lymphocyte proliferation (lymphocyte): increase; Production of tumor necrosis factor (TNF) by macrophages [2]: enhance
CC1=CCCC(C)(C)C1/C=C/C(C)=C/C=C/C(C)=C/C=C/C=C(C)/C=C/C=C(C)/C=C/C1=C(C)CCCC1(C)C (stereo not drawn) [α-carotene]			Human neuroblastoma cell proliferation (human neuroblastoma cell): inhibit
CC1=C(/C=C/C(C)=C/C=C/C(C)=C/C=C/C=C(C)/C=C/C=C(C)/C=C/C2=C(C)CCCC2(C)C)C(C)(C)CCC1 [β-carotene]	increase	enhanced	
